Reference: patent publication US9603834B2, “1,2- bis-sulfonamide derivatives as chemokine receptor modulators” (Allergan, Inc., priority 2010, dated 2017)

Target: CCR2 (Homo sapiens (Human), UniProt P41597)
Assay: Calcium activity on FLIPR Tetra in HEK-Gqi5 cells stably expressing CCR2
Assay type: cell-based
Conditions: FLIPR Tetra calcium assay
Method: HEK-Gqi5 cells stably expressing CCR2 were cultured in (DMEM high glucose, 10% FBS, 1% PSA, 400 μg/ml geneticin and 50 μg/ml hygromycin. Appropriate positive control chemokines (MCP-1, MIP1A or RANTES) was used as the positive control agonist for screening compound-induced calcium activity assayed on the FLIPR^Tetra. The drug plates were prepared in 384-well microplates using the EP3 and the MultiPROBE robotic liquid handling systems. Compounds were synthesized and tested for CCR2 activity.

Sequence of CCR2 (P41597 whole entry, species assumed): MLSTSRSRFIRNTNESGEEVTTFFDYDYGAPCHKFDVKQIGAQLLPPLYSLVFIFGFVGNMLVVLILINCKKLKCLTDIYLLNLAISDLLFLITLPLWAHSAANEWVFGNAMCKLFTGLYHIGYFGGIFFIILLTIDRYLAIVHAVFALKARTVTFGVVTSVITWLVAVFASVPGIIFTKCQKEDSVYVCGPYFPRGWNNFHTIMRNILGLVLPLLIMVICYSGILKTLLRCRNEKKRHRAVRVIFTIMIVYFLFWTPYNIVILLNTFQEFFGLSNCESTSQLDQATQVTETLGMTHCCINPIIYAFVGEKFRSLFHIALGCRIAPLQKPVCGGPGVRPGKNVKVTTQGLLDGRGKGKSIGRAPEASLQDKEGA

Row | CCR2 % Antagonism [%] | IC50 [nM] | Compound
1 | 89 | 263 | O=S(=O)(Nc1cc(Cl)c(Cl)cc1NS(=O)(=O)c1ccc(Cl)s1)c1cccs1 [5-chloro-N-{4,5-dichloro-2-[(2-thienylsulfonyl)amino]phenyl}thiophene-2-sulfonamide]
2 | 91 | 471 | Cc1cc(S(=O)(=O)Nc2cc(Cl)c(Cl)cc2NS(=O)(=O)c2cccs2)ccc1Br [N-(2-{[(4-bromo-3-methylphenyl)sulfonyl]amino}-4,5-dichlorophenyl)thiophene-2-sulfonamide]
3 | 67 | 402 | O=S(=O)(Nc1cc(Cl)c(Cl)cc1NS(=O)(=O)c1ccccc1F)c1cccs1 [N-(4,5-dichloro-2-{[(2-fluorophenyl)sulfonyl]amino}phenyl)thiophene-2-sulfonamide]
4 | 79 | 394 | O=S(=O)(Nc1cc(Cl)c(Cl)cc1NS(=O)(=O)c1cccs1)c1ccc(Cl)c(Cl)c1 [N-(4,5-dichloro-2-{[(3,4-dichlorophenyl)sulfonyl]amino}phenyl)thiophene-2-sulfonamide]
5 | 96 | 217 | O=S(=O)(Nc1cc(Cl)c(Cl)cc1NS(=O)(=O)c1cccc(Cl)c1F)c1cccs1 [N-(4,5-dichloro-2-{[(3-chloro-2-fluorophenyl)sulfonyl]amino}phenyl)thiophene-2-sulfonamide]
6 | 90 | 391 | O=S(=O)(Nc1cc(Cl)c(Cl)cc1NS(=O)(=O)c1cccs1)c1cccc(Cl)c1 [N-(4,5-dichloro-2-{[(3-chlorophenyl)sulfonyl]amino}phenyl)thiophene-2-sulfonamide]
7 | 94 | 361 | O=S(=O)(Nc1cc(Cl)c(Cl)cc1NS(=O)(=O)c1ccc(Cl)cc1F)c1cccs1 [N-(4,5-dichloro-2-{[(4-chloro-2-fluorophenyl)sulfonyl]amino}phenyl)thiophene-2-sulfonamide]
8 | 100 | 96 | O=S(=O)(Nc1cc(Cl)c(Cl)cc1NS(=O)(=O)c1cccs1)c1cc2ccccc2o1 [N-{4,5-dichloro-2-[(2-thienylsulfonyl)amino]phenyl}-1-benzofuran-2-sulfonamide]
9 | 94 | 494 | O=S(=O)(Nc1cc(Cl)c(Cl)cc1NS(=O)(=O)c1cc2ccccc2s1)c1cccs1 [N-{4,5-dichloro-2-[(2-thienylsulfonyl)amino]phenyl}-1-benzothiophene-2-sulfonamide]

The next lines start with the molecule.

Row | Compound | CCR2 % Antagonism [%] | IC50 [nM]
10 | O=S(=O)(Nc1cc(Cl)c(Cl)cc1NS(=O)(=O)c1cccs1)c1ccc(Cl)nc1 [6-chloro-N-{4,5-dichloro-2-[(2-thienylsulfonyl)amino]phenyl}pyridine-3-sulfonamide] | 100 | 281
11 | O=S(=O)(Nc1cc(Cl)c(Cl)cc1NS(=O)(=O)c1ccc(F)cc1F)c1cccs1 [N-(4,5-dichloro-2-{[(2,4-difluorophenyl)sulfonyl]amino}phenyl)thiophene-2-sulfonamide] | 89 | 451
12 | O=S(=O)(Nc1cc(Cl)c(Cl)cc1NS(=O)(=O)c1cc(Cl)cc(Cl)c1O)c1cccs1 [N-(4,5-dichloro-2-{[(3,5-dichloro-2-hydroxyphenyl)sulfonyl]amino}phenyl)thiophene-2-sulfonamide] | 82 | 482
13 | O=S(=O)(Nc1cc(Cl)c(Cl)cc1NS(=O)(=O)c1cccs1)c1ccc(F)cc1 [N-(4,5-dichloro-2-{[(4-fluorophenyl)sulfonyl]amino}phenyl)thiophene-2-sulfonamide] | 91 | 441
14 | O=S(=O)(Nc1cc(Cl)ccc1NS(=O)(=O)c1c(Cl)cccc1Cl)c1cc2ccccc2o1 [N-(5-chloro-2-{[(2,6-dichlorophenyl)sulfonyl]amino}phenyl)-1-benzofuran-2-sulfonamide] | 89 | 478
15 | O=S(=O)(Nc1cc(Cl)ccc1NS(=O)(=O)c1c(F)cccc1F)c1cc2ccccc2o1 [N-(5-chloro-2-{[(2,6-difluorophenyl)sulfonyl]amino}phenyl)-1-benzofuran-2-sulfonamide] | 99 | 153
16 | Cc1ccc(S(=O)(=O)Nc2ccc(Cl)cc2NS(=O)(=O)c2cc3ccccc3o2)s1 [N-(5-chloro-2-{[(5-methyl-2-thienyl)sulfonyl]amino}phenyl)-1-benzofuran-2-sulfonamide] | 96 | 339
17 | O=S(=O)(Nc1cccnc1NS(=O)(=O)c1cccs1)c1ccc(Cl)c(C(F)(F)F)c1 [N-[3-({[4-chloro-3-(trifluoromethyl)phenyl]sulfonyl}amino)pyridin-2-yl]thiophene-2-sulfonamide] | 85 | 349
18 | O=S(=O)(Nc1cc(Cl)c(Cl)cc1NS(=O)(=O)c1cccs1)c1cccc(C(F)(F)F)c1 [N-[4,5-dichloro-2-({[3-(trifluoromethyl)phenyl]sulfonyl}amino)phenyl]thiophene-2-sulfonamide] | 88 | 306
19 | O=S(=O)(Nc1cc(Cl)c(Cl)cc1NS(=O)(=O)c1cccs1)c1ccc(F)c(C(F)(F)F)c1 [N-[4,5-dichloro-2-({[4-fluoro-3-(trifluoromethyl)phenyl]sulfonyl}amino)phenyl]thiophene-2-sulfonamide] | 89 | 432
20 | Cn1cnc(S(=O)(=O)Nc2ccc(Cl)cc2NS(=O)(=O)c2cc3ccccc3o2)c1 [N-{2-[(1-benzofuran-2-ylsulfonyl)amino]-4-chlorophenyl}-1-methyl-1H-imidazole-4-sulfonamide] | 110 | 423
21 | Cn1ccc(S(=O)(=O)Nc2ccc(Cl)cc2NS(=O)(=O)c2cc3ccccc3o2)n1 [N-{2-[(1-benzofuran-2-ylsulfonyl)amino]-4-chlorophenyl}-1-methyl-1H-pyrazole-3-sulfonamide] | 96 | 185
22 | Cc1n[nH]c(C)c1S(=O)(=O)Nc1ccc(Cl)cc1NS(=O)(=O)c1cc2ccccc2o1 [N-{2-[(1-benzofuran-2-ylsulfonyl)amino]-4-chlorophenyl}-3,5-dimethyl-1H-pyrazole-4-sulfonamide] | 108 | 183
23 | Cc1nn(C)c(Cl)c1S(=O)(=O)Nc1ccc(Cl)cc1NS(=O)(=O)c1cc2ccccc2o1 [N-{2-[(1-benzofuran-2-ylsulfonyl)amino]-4-chlorophenyl}-5-chloro-1,3-dimethyl-1H-pyrazole-4-sulfonamide] | 80 | 294
24 | Cc1ccc(S(=O)(=O)Nc2cc(Cl)c(Cl)cc2NS(=O)(=O)c2cccs2)o1 [N-{4,5-dichloro-2-[(2-thienylsulfonyl)amino]phenyl}-5-methylfuran-2-sulfonamide] | 95 | 311
25 | O=S(=O)(Nc1ccc(Cl)cc1NS(=O)(=O)c1cccs1)c1cc2ccccc2o1 [N-{4-chloro-2-[(2-thienylsulfonyl)amino]phenyl}-1-benzofuran-2-sulfonamide] | 90 | 145
26 | O=S(=O)(Nc1cc(Cl)ccc1NS(=O)(=O)c1cccs1)c1cc2ccccc2o1 [N-{5-chloro-2-[(2-thienylsulfonyl)amino]phenyl}-1-benzofuran-2-sulfonamide] | 86 | 20
27 | COC(=O)c1sccc1S(=O)(=O)Nc1ccc(Cl)cc1NS(=O)(=O)c1cc2ccccc2o1 [methyl 3-[({2-[(1-benzofuran-2-ylsulfonyl)amino]-4-chlorophenyl}amino)sulfonyl]thiophene-2-carboxylate] | 96 | 246
